Data published in publication PMC7601839, “Anti-Acne Effects of Cembrene Diterpenoids from the Cultured Soft Coral Sinularia flexibilis” (Marine Drugs, 2020).

What was measured:
HaCaT cells [1] = assay: cells; details: Homo sapiens, read-out: HaCaT cell viability
Description: (§5) HaCaT cells (10^5 cells/mL) were seeded in 96-well plates and co-treated with testosterone (5 μg/mL) or DHT (5 μg/mL) and test samples with no cytotoxicity for 48 h [2, 25, 26]. Cell proliferative activity was detected by an MTT assay.

HaCaT cells [2] = details: 20 nM, 48 h
Description: as §5

COX-2 [3] = test system: COX-2; set-up: method as in PMID 23774887; details: LPS-stimulated RAW264.7 macrophage cells; cited from earlier work
iNOS [4] = test system: iNOS; set-up: method as in PMID 23774887; details: LPS-stimulated RAW264.7 macrophage cells; cited from earlier work
[5] = test system: LPS-induced RAW 264.7 cells (NO production); assay: NO production (Griess) in LPS-induced RAW 264.7 cells; format: cell-based; details: Mus musculus, RAW264.7, 24 h; for IC50: read-out: IC50 Value of NO Inhibition
Description: (§1) Anti-inflammatory effects were analyzed in RAW 264.7 cells, which were cultured in DMEM with 10% FBS, 1% L-glutamine, and 1% penicillin-streptomycin, and maintained at 37 °C in a 5% CO2 atmosphere. RAW 264.7 cells (4.0 × 10^5 cells/mL) were seeded in 96-well plates and co-treated with LPS (500 ng/mL) and test samples. After 24 h, NO production was determined by Griess reagent, and the absorption was detected at 530 nm. The percentage inhibition of NO production was presented as the anti-inflammatory activity. PGE2 concentrations in cell culture media were determined with a PGE2 enzyme-linked immunosorbent assay (ELISA) kit (Enzo Life Sciences, Farmingdale, NY, USA). The survival rate of RAW 264.7 cells was detected using an MTT assay.

[6] = test system: HKC-induced RAW 264.7 cells (NO production); assay: NO production (Griess) in heat-killed C. acnes (HKC)-induced RAW 264.7 cells; format: cell-based; details: Mus musculus, RAW264.7, 24 h, read-out: IC50 Value of NO Inhibition
Description: (§2) C. acnes (4 × 10^8 cfu/mL) was heated at 80 °C for 30 min and killed. Heat-killed C. acnes (HKC) was freeze-dried as a powder and maintained at 4 °C until use. RAW 264.7 and HaCaT cells were cultured in DMEM with 10% FBS, 1% penicillin-streptomycin, and 1% L-glutamine at 37 °C in a 5% CO2 atmosphere. RAW 264.7 cells (4 × 10^5 cells/mL) and HaCaT cells (10^5 cells/mL) were seeded in six-well plates and co-treated with HKC (300 μg/mL) and test samples [24]. After 24 h, NO production was determined by adding the Griess reagent in the cell culture medium, and the absorption was measured in an ELISA reader at 530 nm. The sample culture medium was removed, and RAW 264.7 cells and HaCaT cells were washed with PBS.

p-ERK [7] = assay: Western blot of p-ERK in HKC-treated HaCaT cells; format: cell-based, human; details: 30 min after HKC induction
Description: (§3) Whole-cell lysates were prepared using radioimmunoprecipitation (RIPA) assay. Proteins in lysate samples (30 μg) were analyzed using 10% sodium dodecylsulfate-polyacrylamide gel electrophoresis (SDS-PAGE). Gels were transferred to nitrocellulose membranes and probed with primary iNOS (clone N-20), COX-2 (clone C-20), p-ERK (clone N-20), p-JNK (clone N-20), and glyceraldehyde-3-phosphate dehydrogenase (GAPDH; clone 6C5) antibodies (Santa Cruz Biotechnology, Santa Cruz, CA, USA). Membranes were visualized with a BCIP/NBT kit (Gibco BRL, Grand Island, NY, USA). Protein expression was quantified using the Azure Biosystem C300 Imaging System. GAPDH expression was used as an internal control to compare with protein expressions of iNOS, COX-2, p-ERK, and p-JNK [24].
as §2

iNOS [8] = assay: Western blot of iNOS in LPS-induced RAW 264.7 cells; format: cell-based; details: 24 h
Description: as §3

p-JNK [9] = assay: Western blot of p-JNK in LPS-induced RAW 264.7 cells; format: cell-based; details: 30 min, SC-2 2.5–20 μM, SC-7 5–40 μM, SC-9 2.5–20 μM
Description: as §3

[10] = test system: Dihydrotestosterone-induced HaCaT cells; assay: Anti-proliferative activity in dihydrotestosterone-treated HaCaT cells (MTT); format: cell-based, human; details: for keratinocyte over-proliferation by DHT: HaCaT keratinocytes
Description: (§4) HaCaT cells (10^5 cells/mL) were seeded in 96-well plates and co-treated with testosterone (5 μg/mL) or DHT (5 μg/mL) and test samples with no cytotoxicity for 48 h. Cell proliferative activity was detected by an MTT assay.

[11] = Survival rate of RAW 264.7 cells by MTT assay; format: cell-based; details: mouse, LPS-induced RAW 264.7 cells, read-out: Cell Viability (%)
Description: as §1

[12] = test system: Testosterone-induced HaCaT cells; assay: Anti-proliferative activity in testosterone-treated HaCaT cells (MTT); format: cell-based, human; details: for testosterone-induced HaCaT cell proliferation: SC-2 1.25–5, SC-7 2.5–10, SC-9 0.08–0.32 μM, 48 h
Description: as §4

iNOS [13] = assay: Western blot of iNOS in HKC-treated RAW 264.7 cells; format: cell-based
Description: as §3, §2

COX-2 [14] = assay: Western blot of COX-2 in LPS-induced RAW 264.7 cells; format: cell-based; details: 6 h and 24 h
Description: as §3

[15] = test system: LPS-induced RAW 264.7 cells (PGE2 production); assay: PGE2 production (ELISA) in LPS-induced RAW 264.7 cells; format: cell-based; details: for inhibitory effect on prostaglandin E2 (PGE2) production: 24 h
Description: as §1

COX-2 [16] = assay: Western blot of COX-2 in HKC-treated RAW 264.7 cells; format: cell-based
Description: as §3, §2

p-JNK [17] = assay: Western blot of p-JNK in HKC-treated RAW 264.7 cells; format: cell-based; details: SC-2 2.5–20 μM, SC-7 5–40 μM, SC-9 2.5–20 μM
Description: as §3, §2

HaCaT cells [18] = assay: Cytotoxicity analysis in HaCaT cells; format: cell-based, human
p-ERK [19] = assay: Western blot of p-ERK in LPS-induced RAW 264.7 cells; format: cell-based; details: 30 min, SC-2 2.5–20 μM, SC-7 5–40 μM, SC-9 2.5–20 μM
Description: as §3

p-ERK [20] = assay: Western blot of p-ERK in HKC-treated RAW 264.7 cells; format: cell-based; details: SC-2 2.5–20 μM, SC-7 5–40 μM, SC-9 2.5–20 μM
Description: as §3, §2

| Compound | accumulation of the proinflammatory iNOS protein (iNOS [4]) | inhibition at 20 µM [5] [%] | IC50 [5] [µM] | IC50 [6] [µM] | p-ERK protein expression (p-ERK [7]) | iNOS protein expression (iNOS [8]) | p-JNK protein expression (p-JNK [9]) | keratinocyte over-proliferation by DHT [10] | viability at 24 h, 20 µM [11] [%] | testosterone-induced HaCaT cell proliferation [12] | iNOS expression (iNOS [13]) | COX-2 protein expression (COX-2 [14]) | inhibitory effect on prostaglandin E2 (PGE2) production [15] | COX-2 expression (COX-2 [16]) | p-JNK expression (p-JNK [17]) | concentrations with no cytotoxicity to HaCaT cells (HaCaT cells [18]) [nM] | p-ERK protein expression (p-ERK [19]) | p-ERK expression (p-ERK [20]) | other results |
| --- | --- | --- | --- | --- | --- | --- | --- | --- | --- | --- | --- | --- | --- | --- | --- | --- | --- | --- | --- |
| C[C@]12CCC(=O)C[C@@H]1CC[C@@H]1[C@@H]2CC[C@]2(C)[C@@H](O)CC[C@@H]12 [DHT, dihydrotestosterone] | – | – | – | – | – | – | – | – | – | – | – | – | – | – | – | – | – | – | viability at 0.1 µg/mL (HaCaT cells [1]): 97.6%; viability at 0.5 µg/mL (HaCaT cells [1]): 103%; viability at 1 µg/mL (HaCaT cells [1]): 105%; viability at 5 µg/mL (HaCaT cells [1]): 118%; HaCaT cell proliferation (HaCaT cells [2]): significantly induced |
| flexibilisolides C | significantly inhibit | – | – | – | – | – | – | – | – | – | – | – | – | – | – | – | – | – | accumulation of COX-2 protein (COX-2 [3]): could reduce |
| C=C1C(=O)OC2(C)CCC1CC1OC1(C)CCC(OC(C)=O)C1(C)CCC2O1 (stereo not shown) [SC-7, 3,4:8,11-bisepoxy-7-acetoxycembra-15(17)-en-1,12-olide] | significantly inhibit | 50.2 ± 5.5 | 15.2 ± 0.25 | 7.42 ± 0.4 | significant inhibitory effects | decreased iNOS protein expression | dose-dependent inhibitory effects | inhibited keratinocyte over-proliferation | 96.1 ± 8.4 | significantly decreased | significant inhibitory effects | did not present identical COX-2 inhibitory effects | no inhibitory effect | no changes | good inhibitory effects | 5000 to 40000 | dose-dependent inhibitory effects | good inhibitory effects | inhibition at 2.5 µM ([10]; Homo sapiens, dihydrotestosterone-induced HaCaT cells, 2.5 μM): 9.5 ± 3.2%; inhibition at 5 µM ([10]; Homo sapiens, dihydrotestosterone-induced HaCaT cells, 5 μM): 13.1 ± 2.9%; inhibition at 10 µM ([10]; Homo sapiens, dihydrotestosterone-induced HaCaT cells, 10 μM): 13.8 ± 0.8%; inhibition at 2.5 µM ([12]; Homo sapiens, testosterone-induced HaCaT cells, 2.5 μM): 13.2 ± 0.7%; inhibition at 5 µM ([12]; Homo sapiens, testosterone-induced HaCaT cells, 5 μM): 14 ± 2%; inhibition at 10 µM ([12]; Homo sapiens, testosterone-induced HaCaT cells, 10 μM): 20.8 ± 0.9% |
| flexibilisolides D | significantly inhibit | – | – | – | – | – | – | – | – | – | – | – | – | – | – | – | – | – | – |
| C=C1C(=O)O[C@@H]2C[C@H]1CC[C@]1(C)O[C@H]1CC/C(C)=C/CC[C@]2(C)O [SC-9, sinularin] | – | 102 ± 1.4 | 3.85 ± 0.25 | 2.81 ± 0.2 | significant inhibitory effects | decreased iNOS protein expression | dose-dependent inhibitory effects | inhibited keratinocyte over-proliferation | 98.9 | significantly decreased | significant inhibitory effects | more significant COX-2 inhibitory effects at 6 h than that at 24 h | no inhibitory effect | no changes | good inhibitory effects | 312 to 2500 | dose-dependent inhibitory effects | good inhibitory effects | inhibition at 0.08 µM ([10]; Homo sapiens, dihydrotestosterone-induced HaCaT cells, 0.08 μM): 8.5 ± 0.7%; inhibition at 0.16 µM ([10]; Homo sapiens, dihydrotestosterone-induced HaCaT cells, 0.16 μM): 16 ± 0.7%; inhibition at 0.32 µM ([10]; Homo sapiens, dihydrotestosterone-induced HaCaT cells, 0.32 μM): 18 ± 3.1%; inhibition at 0.08 µM ([12]; Homo sapiens, testosterone-induced HaCaT cells, 0.08 μM): 6.5 ± 0.5%; inhibition at 0.16 µM ([12]; Homo sapiens, testosterone-induced HaCaT cells, 0.16 μM): 11.5 ± 1.3%; inhibition at 0.32 µM ([12]; Homo sapiens, testosterone-induced HaCaT cells, 0.32 μM): 19.1 ± 1.3%; IC50 ([15]; Mus musculus, RAW264.7, 6 h, read-out: IC50 Value of PGE2 Inhibition): 6.22 µM; growth inhibition of HaCaT cells (HaCaT cells [18]; at high doses): caused growth inhibition |
| C=C1C(=O)O[C@]2(C)CC[C@@H]1C[C@@H]1O[C@@]1(C)C/C=C/[C@@](C)(OO)CCC2=O [flexilarin D] | significantly inhibit | – | – | – | – | – | – | – | – | – | – | – | – | – | – | – | – | – | – |
